Measurements taken from PubChem BioAssay AID1918941 (Molecular Pharmacology Branch, DTP, NCI, 2023).
Where “and” joins values, the source holds several entries; their conditions need not be identical. Equal values may be shown once.

Test system: SW 1271 complex spheroids, viability
Experiment: Anticancer human tumor SW 1271 cell line growth inhibition [LSD1];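 note: spheroids exposed to agents for 7 days before luminescence read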;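 for viability, T/C: 100% = DMSO vehicle control viability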
Settings: for viability, T/C: stronger effect = lower value
How it was run: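 Drug combinations with the LSD1 inhibitor iadademstat tested on tumor cells co-cultured as spheroids with endothelial cells and mesenchymal stem cells. Concentrations descended in half-log increments from clinical Cmax or 10 microM.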

[1] = curve of first compound, second compound 0.1 µM
[2] = curve of first compound, second compound 0.316 µM
[3] = curve of first compound, second compound 1 µM
[4] = curve of first compound, second compound 3.16 µM
[5] = curve of first compound, second compound 10 µM
[6] = second compound 0.1 µM, first compound 0.0316 µM
[7] = second compound 0.1 µM, first compound 0.1 µM
[8] = second compound 0.1 µM, first compound 0.316 µM
[9] = second compound 0.1 µM, first compound 1 µM
[10] = second compound 0.1 µM, first compound 3.16 µM
[11] = second compound 0.1 µM, first compound 10 µM
[12] = second compound 0.316 µM, first compound 0.0316 µM
[13] = second compound 0.316 µM, first compound 0.1 µM
[14] = second compound 0.316 µM, first compound 0.316 µM
[15] = second compound 0.316 µM, first compound 1 µM
[16] = second compound 0.316 µM, first compound 3.16 µM
[17] = second compound 0.316 µM, first compound 10 µM
[18] = second compound 1 µM, first compound 0.0316 µM
[19] = second compound 1 µM, first compound 0.1 µM
[20] = second compound 1 µM, first compound 0.316 µM
[21] = second compound 1 µM, first compound 1 µM
[22] = second compound 1 µM, first compound 3.16 µM
[23] = second compound 1 µM, first compound 10 µM
[24] = second compound 3.16 µM, first compound 0.0316 µM
[25] = second compound 3.16 µM, first compound 0.1 µM
[26] = second compound 3.16 µM, first compound 0.316 µM
[27] = second compound 3.16 µM, first compound 1 µM
[28] = second compound 3.16 µM, first compound 3.16 µM
[29] = second compound 3.16 µM, first compound 10 µM
[30] = second compound 10 µM, first compound 0.0316 µM
[31] = second compound 10 µM, first compound 0.1 µM
[32] = second compound 10 µM, first compound 0.316 µM
[33] = second compound 10 µM, first compound 1 µM
[34] = second compound 10 µM, first compound 3.16 µM
[35] = second compound 10 µM, first compound 10 µM

SMILES: CC1COCCN1c1cc(C2(S(C)(=N)=O)CC2)nc(-c2ccnc3[nH]ccc23)n1 (configuration not stated) + NC1CC1c1ccc(-c2cccc(O)c2)cc1
- IC50 [1]: 1.87 µM
- IC50 [2]: 2.6 µM
- IC50 [3]: > 10 µM
- IC50 [4]: 1.36 µM
- IC50 [5]: 0.954 µM
- viability, T/C [6]: 84.8%
- viability, T/C [7]: 79.5%
- viability, T/C [8]: 65.5%
- viability, T/C [9]: 49%
- viability, T/C [10]: 53.7%
- viability, T/C [11]: 45.6%
- viability, T/C [12]: 81.3%
- viability, T/C [13]: 82.1%
- viability, T/C [14]: 65%
- viability, T/C [15]: 57.1%
- viability, T/C [16]: 46%
- viability, T/C [17]: 49.4%
- viability, T/C [18]: 75%
- viability, T/C [19]: 95.2%
- viability, T/C [20]: 70.1%
- viability, T/C [21]: 56.7%
- viability, T/C [22]: 51.6%
- viability, T/C [23]: 47.1%
- viability, T/C [24]: 70.2%
- viability, T/C [25]: 69.9%
- viability, T/C [26]: 72.6%
- viability, T/C [27]: 51.7%
- viability, T/C [28]: 46.7%
- viability, T/C [29]: 43.8%
- viability, T/C [30]: 48.1%
- viability, T/C [31]: 61.1%
- viability, T/C [32]: 59.2%
- viability, T/C [33]: 49.7%
- viability, T/C [34]: 42%
- viability, T/C [35]: 46.2%

SMILES: NC1CCC(NC2CC2c2ccccc2)CC1 (configuration not stated)
- viability, T/C (compound 0.316 µM): 77.1% and 85.3%
- IC50 (compound alone, run of 02/15/2022): > 10 µM

SMILES: COc1cc(C2c3cc4c(cc3C(OC3OC5COC(C)OC5C(O)C3O)C3COC(=O)C23)OCO4)cc(OC)c1O (configuration not stated) + NC1CCC(NC2CC2c2ccccc2)CC1
- IC50 [1]: 2.66 µM
- IC50 [2]: > 3 µM
- IC50 [3]: > 3 µM
- IC50 [4]: > 3 µM
- IC50 [5]: > 3 µM
- viability, T/C (second compound 0.1 µM, first compound 0.00949 µM): 77%
- viability, T/C (second compound 0.1 µM, first compound 0.03 µM): 76.8%
- viability, T/C (second compound 0.1 µM, first compound 0.0949 µM): 80.5%
- viability, T/C (second compound 0.1 µM, first compound 0.3 µM): 68.9%
- viability, T/C (second compound 0.1 µM, first compound 0.949 µM): 78.7%
- viability, T/C (second compound 0.1 µM, first compound 3 µM): 47%
- viability, T/C (second compound 0.316 µM, first compound 0.00949 µM): 88.7%
- viability, T/C (second compound 0.316 µM, first compound 0.03 µM): 94.4%
- viability, T/C (second compound 0.316 µM, first compound 0.0949 µM): 75%
- viability, T/C (second compound 0.316 µM, first compound 0.3 µM): 66.7%
- viability, T/C (second compound 0.316 µM, first compound 0.949 µM): 58.4%
- viability, T/C (second compound 0.316 µM, first compound 3 µM): 64.1%
- viability, T/C (second compound 1 µM, first compound 0.00949 µM): 80.2%
- viability, T/C (second compound 1 µM, first compound 0.03 µM): 80.2%
- viability, T/C (second compound 1 µM, first compound 0.0949 µM): 74.2%
- viability, T/C (second compound 1 µM, first compound 0.3 µM): 75%
- viability, T/C (second compound 1 µM, first compound 0.949 µM): 66.7%
- viability, T/C (second compound 1 µM, first compound 3 µM): 56.9%
- viability, T/C (second compound 3.16 µM, first compound 0.00949 µM): 95.7%
- viability, T/C (second compound 3.16 µM, first compound 0.03 µM): 70.9%
- viability, T/C (second compound 3.16 µM, first compound 0.0949 µM): 71.8%
- viability, T/C (second compound 3.16 µM, first compound 0.3 µM): 73.4%
- viability, T/C (second compound 3.16 µM, first compound 0.949 µM): 58.9%
- viability, T/C (second compound 3.16 µM, first compound 3 µM): 60.8%
- viability, T/C (second compound 10 µM, first compound 0.00949 µM): 77%
- viability, T/C (second compound 10 µM, first compound 0.03 µM): 80.9%
- viability, T/C (second compound 10 µM, first compound 0.0949 µM): 72.1%
- viability, T/C (second compound 10 µM, first compound 0.3 µM): 72.2%
- viability, T/C (second compound 10 µM, first compound 0.949 µM): 58.4%
- viability, T/C (second compound 10 µM, first compound 3 µM): 64.3%

SMILES: O=C(c1cc(Cc2n[nH]c(=O)c3ccccc23)ccc1F)N1CCN(C(=O)C2CC2)CC1 + NC1CCC(NC2CC2c2ccccc2)CC1
- IC50 [1]: > 10 µM
- IC50 [2]: > 10 µM
- IC50 [3]: > 10 µM
- IC50 [4]: > 10 µM
- IC50 [5]: > 10 µM
- viability, T/C [6]: 82%
- viability, T/C [7]: 104%
- viability, T/C [8]: 95.3%
- viability, T/C [9]: 86.2%
- viability, T/C [10]: 82.6%
- viability, T/C [11]: 71.2%
- viability, T/C [12]: 85.7%
- viability, T/C [13]: 91.9%
- viability, T/C [14]: 97.3%
- viability, T/C [15]: 87.7%
- viability, T/C [16]: 81.9%
- viability, T/C [17]: 63.8%
- viability, T/C [18]: 82.7%
- viability, T/C [19]: 105%
- viability, T/C [20]: 91.5%
- viability, T/C [21]: 96.6%
- viability, T/C [22]: 79.8%
- viability, T/C [23]: 71.9%
- viability, T/C [24]: 81.6%
- viability, T/C [25]: 94.7%
- viability, T/C [26]: 101%
- viability, T/C [27]: 83.4%
- viability, T/C [28]: 84%
- viability, T/C [29]: 76.6%
- viability, T/C [30]: 93.8%
- viability, T/C [31]: 95.9%
- viability, T/C [32]: 94.5%
- viability, T/C [33]: 84.2%
- viability, T/C [34]: 78.1%
- viability, T/C [35]: 66.9%

SMILES: O=C(C=Cn1cnc(-c2cc(C(F)(F)F)cc(C(F)(F)F)c2)n1)NNc1cnccn1 + NC1CCC(NC2CC2c2ccccc2)CC1
- IC50 [1]: 0.135 µM
- IC50 [2]: 0.189 µM
- IC50 [3]: 0.229 µM
- IC50 [4]: 0.215 µM
- IC50 [5]: 0.203 µM
- viability, T/C (second compound 0.1 µM, first compound 0.00316 µM): 86.6%
- viability, T/C (second compound 0.1 µM, first compound 0.01 µM): 91.2%
- viability, T/C [6]: 72.9%
- viability, T/C [7]: 50.2%
- viability, T/C [8]: 42.8%
- viability, T/C [9]: 24.6%
- viability, T/C (second compound 0.316 µM, first compound 0.00316 µM): 84.5%
- viability, T/C (second compound 0.316 µM, first compound 0.01 µM): 77.3%
- viability, T/C [12]: 81.3%
- viability, T/C [13]: 53.5%
- viability, T/C [14]: 46%
- viability, T/C [15]: 27.4%
- viability, T/C (second compound 1 µM, first compound 0.00316 µM): 90.5%
- viability, T/C (second compound 1 µM, first compound 0.01 µM): 101%
- viability, T/C [18]: 88.9%
- viability, T/C [19]: 62.4%
- viability, T/C [20]: 47%
- viability, T/C [21]: 18.5%
- viability, T/C (second compound 3.16 µM, first compound 0.00316 µM): 81.9%
- viability, T/C (second compound 3.16 µM, first compound 0.01 µM): 79.3%
- viability, T/C [24]: 92.1%
- viability, T/C [25]: 54.3%
- viability, T/C [26]: 48.3%
- viability, T/C [27]: 23.7%
- viability, T/C (second compound 10 µM, first compound 0.00316 µM): 87.5%
- viability, T/C (second compound 10 µM, first compound 0.01 µM): 86.6%
- viability, T/C [30]: 79.1%
- viability, T/C [31]: 59%
- viability, T/C [32]: 44.8%
- viability, T/C [33]: 29.5%
